Measurements taken from the supplement of paper PMC10627819.

Key:
S. aureus DSM 20231 [1] = assay: Bliss interaction score (quartile over a dose matrix) (fitness difference); higher = more antagonism (negative = synergy)
Method in brief: (§1)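 Fitness is OD595 at stationary-phase entry relative to the plate's robust no-drug mean, capped at 1. Single-drug fitness was inferred from combinations. The Bliss score is observed minus product-expected fitness, summarised by quartiles over technical, biological and donor/recipient replicates.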

S. pneumoniae D39V = assay: as above
Method in brief: as §1

B. subtilis 168 [2] = assay: as above
Method in brief: as §1

S. aureus Newman [3] = assay: as above
Method in brief: as §1

S. aureus DSM 20231 [4] = assay: fitness (endpoint OD595 vs no drug) (fraction); higher = more growth
Method in brief: (§2)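 In 384-well plates at 37 °C, cultures began at OD595 0.01 in 30 µl, with 55 µl used for S. pneumoniae. OD595 readings every 30 min for 14 h were corrected by the first reading. Fitness divides the stationary-phase transition optical density by the robust mean of no-drug control wells. The result is capped at 1.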

B. subtilis 168 [5] = assay: as above
Method in brief: as §2

S. aureus Newman [6] = assay: as above
Method in brief: as §2
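For Bliss interaction score (quartile over a dose matrix) in this document: first quartile when negative (synergy) and third quartile when positive (antagonism).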

CC[C@H]1OC(=O)[C@H](C)[C@@H](O[C@H]2C[C@@](C)(OC)[C@@H](O)[C@H](C)O2)[C@H](C)[C@@H](O[C@@H]2O[C@H](C)C[C@H](N(C)C)[C@H]2O)[C@](C)(O)C[C@@H](C)CN(C)[C@H](C)[C@@H](O)[C@]1(C)O [Azithromycin] + CN[C@@H]1[C@H](O)[C@H](NC)[C@H]2O[C@@]3(O)C(=O)C[C@@H](C)O[C@H]3O[C@@H]2[C@H]1O [Spectinomycin]
Conditions	Bliss interaction score
B. subtilis 168 [2]	-0.0884
S. aureus DSM 20231 [1]	-0.107
S. aureus Newman [3]	-0.124
S. pneumoniae D39V	-0.0642

fitness
Conditions	partner 2 µg/mL	partner 4 µg/mL	partner 8 µg/mL	partner 16 µg/mL
B. subtilis 168 [5], first compound 0.25 µg/mL	0.918	0.895	0.815	–
B. subtilis 168 [5], first compound 0.5 µg/mL	0.849	0.816	–	–
S. aureus DSM 20231 [4], first compound 0.125 µg/mL	–	0.856	0.774	0.755
S. aureus DSM 20231 [4], first compound 0.25 µg/mL	–	0.788	0.771	0.644
S. aureus Newman [6], first compound 0.125 µg/mL	–	0.84	0.849	0.821
S. aureus Newman [6], first compound 0.25 µg/mL	–	0.818	0.812	0.689

fitness, one replicate
Conditions	first compound 0.125 µg/mL	first compound 0.25 µg/mL	first compound 0.5 µg/mL
S. aureus DSM 20231 [4], partner 32 µg/mL	0.658	0.348	0.0388
S. aureus DSM 20231 [4], partner 64 µg/mL	0.0503	0.0326	0.0093
S. aureus Newman [6], partner 32 µg/mL	0.401	0.165	0.0078
S. aureus Newman [6], partner 64 µg/mL	0.0378	0.0151	0.003

CC[C@H]1OC(=O)[C@H](C)[C@@H](O[C@H]2C[C@@](C)(OC)[C@@H](O)[C@H](C)O2)[C@H](C)[C@@H](O[C@@H]2O[C@H](C)C[C@H](N(C)C)[C@H]2O)[C@](C)(O)C[C@@H](C)CN(C)[C@H](C)[C@@H](O)[C@]1(C)O [Azithromycin] + CO/N=C(\C(=O)N[C@@H]1C(=O)N2C(C(=O)O)=C(COC(C)=O)CS[C@H]12)c1csc(N)n1 [Cefotaxime]
Conditions	Bliss interaction score
B. subtilis 168 [2]	-0.053
S. aureus DSM 20231 [1]	0.0492
S. aureus Newman [3]	-0.0321
S. pneumoniae D39V	0.0552

fitness, one replicate
Conditions	first compound 0.125 µg/mL	first compound 0.25 µg/mL	first compound 0.5 µg/mL	first compound 1 µg/mL	first compound 2 µg/mL
B. subtilis 168 [5], partner 0.00775 µg/mL	–	–	0.831	0.567	0.0141
B. subtilis 168 [5], partner 0.0155 µg/mL	–	–	0.714	0.324	0.0276
B. subtilis 168 [5], partner 0.031 µg/mL	–	–	0.516	0.153	0.0097
S. aureus DSM 20231 [4], partner 0.039 µg/mL	0.725	0.724	0.589	–	–
S. aureus Newman [6], partner 0.039 µg/mL	0.792	0.896	0.786	–	–
S. aureus Newman [6], partner 0.312 µg/mL	0.269	0.241	0.0227	–	–

fitness
Conditions	first compound 0.125 µg/mL	first compound 0.25 µg/mL	first compound 0.5 µg/mL	first compound 1 µg/mL
B. subtilis 168 [5], partner 0.0625 µg/mL	–	0.654	0.631	–
B. subtilis 168 [5], partner 0.125 µg/mL	–	0.456	0.456	0.21
B. subtilis 168 [5], partner 0.25 µg/mL	–	0.349	0.358	0.177
B. subtilis 168 [5], partner 0.5 µg/mL	–	0.21	0.19	0.0636
B. subtilis 168 [5], partner 1 µg/mL	–	0.141	0.103	0.0233
B. subtilis 168 [5], partner 2 µg/mL	–	0.111	0.0792	0.037
S. aureus DSM 20231 [4], partner 0.078 µg/mL	0.744	0.768	0.554	–
S. aureus DSM 20231 [4], partner 0.156 µg/mL	0.672	0.762	0.511	–
S. aureus DSM 20231 [4], partner 0.312 µg/mL	0.6	0.668	0.487	–
S. aureus Newman [6], partner 0.078 µg/mL	0.722	0.754	0.549	–
S. aureus Newman [6], partner 0.156 µg/mL	0.587	0.588	–	–
S. aureus Newman [6], partner 0.625 µg/mL	–	–	0.0779	–
S. aureus Newman [6], partner 1.25 µg/mL	0.157	0.0373	0.0342	–
S. aureus Newman [6], partner 2.5 µg/mL	0.0341	0.0356	0.0427	–
